Results from patent publication US20230265068A1, “TRANSIENT RECEPTOR POTENTIAL CANONICAL 3 INHIBITORS AND METHODS OF USE THEREOF” (University of Tennessee Research Foundation, priority 2020, published 2023).

Legend:
[1] = test system: PTZ-induced seizures; assay: mouse pentylenetetrazole (PTZ) model of SE; format: in vivo, mice; settings: 100 mg/kg, i.p., 30 min before PTZ; vs vehicle
Procedure: FIGS. 8A-8B show the inhibition of TRPC3 channels by compound 22 reduces susceptibility of animals to PTZ-induced seizures. Young adult C57BL/6 mice (male, 8-9 weeks) were first treated by compound 22 (100 mg/kg, i.p.), and 30 minutes later by pentylenetetrazole (PTZ, 80±5 mg/kg, s.c.) for the induction seizures. (FIG. 8A) Percentages of mice reaching myoclonic jerk (MJ, Left) and generalized tonic-clonic seizure (GTCS, Right) were compared between vehicle and compound 22-treated mice by Mantel-Cox log-rank test. (FIG. 8B) Latencies to the first MJ (Left) and first GTCS (Right) were compared between vehicle and compound 22 by t-test. Data are shown as mean+SEM (number of mice N=9 for vehicle; 10 for compound 22).
To ensure that the efficacy observed in FIG. 7 is not associated with this particular mouse model of epilepsy, we examined the effects of our current lead compound 22 on pentylenetetrazole (PTZ)-induced seizures in mice. As a GABA receptor antagonist, PTZ is another convulsant chemical commonly used to generate seizures in experimental rodents. Young adult C57BL/6 mice (male, 8-9 weeks) were first treated by 22 (100 mg/kg, i.p.) or vehicle. Thirty minutes later, mice were subcutaneously injected with (PTZ, ˜80 mg/kg) to induced seizures. Animals were placed in a plexiglass chamber, and the latencies to the first myoclonic jerk (MJ) and the first generalized tonic-clonic seizure (GTCS) were recorded during a 30-min period of observation. […] Given that PTZ (FIG. 8) and pilocarpine (FIG. 7) trigger seizures via different mechanisms of actions, it is unlikely the anti-seizure effects of our lead compound 22 are model-specific.

[2] = test system: pilocarpine-induced seizures; assay: mouse pilocarpine model of SE; format: in vivo, mice
Procedure: (FIG. 7A) Mice were treated by pilocarpine (220 mg/kg, i.p.) for seizure induction, and behavioral seizures were scored every 5 min based a modified Racine scale. After stage-2 behavioral seizures were established (usually about 15-20 min after pilocarpine injection), mice were treated by either vehicle or compound 22 (100 mg/kg, i.p.). […] (FIG. 7B) Maximal seizure scores in mice after pilocarpine injection (p<0.0001, t-test). (FIG. 7C) Latency to partial (stage-3) seizures (p=0.0002, t-test). (FIG. 7D) Latency to generalized (stage-4) seizures (p=0.0001, t-test). (FIG. 7E) Percentage of animals that experienced stage-5 seizures or SE (p<0.0001, Fisher's exact test). (FIG. 7F) Percentage of animals survived pilocarpine-induced seizures (p=0.1649, Fisher's exact test). Data are presented as mean+/±SEM.
Mouse Pilocarpine Model of SE. Mice were first injected with methylscopolamine and terbutaline (2 mg/kg each in saline, i.p.) to minimize the unwanted effects of pilocarpine in the periphery. Thirty minutes later, pilocarpine (250 mg/kg in saline, freshly prepared, i.p.) was injected to induce seizures in mice. To determine the anti-seizure effects of compound 22, compound 22 was administered either before pilocarpine injection or after the behavioral seizures were well established. Control mice received methylscopolamine and terbutaline, followed by saline injection instead of pilocarpine. Behavioral seizures were classified using a modified Racine scale as we previously described (Table 5).^22-25 SE was defined by non-intermittent seizure activity (stage 5), which was indicated by continuous generalized clonic seizures without returning to lower-stage seizures (Table 5).

[3] = metabolic stability in rat liver microsomes; format: in vitro ADME; settings: rat, microsomes
Procedure: The metabolic stability of compound 22 was tested prior to the next phase of in vivo study. […] The maximum tolerated dose (MTD) study was subsequently performed to investigate its in vivo toxicity (FIGS. 4A and 4B). The second major limitation of Pyr3 is its toxicity due to its alkylating tail moiety. While replacing only the fast-metabolizing head ester group in Pyr3 with a stable amide (compound 79) improved metabolic stability, a single IP injection of compound 79 at 200 mg/kg killed all mice within 24 h.

[4] = single dose 100 mg/kg, i.p after onset of seizures (stage 2)

CCNC(=O)c1cnn(-c2ccc(-n3ccc(Cl)c(Cl)c3=O)cc2)c1C(F)(F)F [Compound 22]
latency to first GTCS [1]: significantly increased | latency to first MJ [1]: significantly increased | percentage of mice that reached generalized tonic-clonic seizure (GTCS) [1]: substantially reduced | percentage of mice that reached myoclonic jerk (MJ) [1]: substantially reduced | scores of pilocarpine-induced seizures (modified Racine scale) ([2]; 100 mg/kg, i.p. after stage-2 seizures established, vs vehicle): reduced the scores of pilocarpine-induced seizures | electrographic seizures (electroencephalography) ([2]; after pilocarpine injection): diminished electrographic seizures | maximal seizure scores during a 90-minute observation [2, 4]: decreased | overall seizure intensity [2, 4]: decreased the overall seizure intensity | initiation of behavioral seizures ([2]; systemic treatment before pilocarpine injection): significantly impaired the initiation of behavioral seizures | half-life [3]: > 4 h
